Experimental data published in US5849587A, “Method of inhibiting viral replication in eukaryotic cells and of inducing apoptosis of virally-infected cells” (Cornell Research Foundation, Inc., priority 1995, dated 1998).

Experiments:
Deoxyhypusyl hydroxylase = biological target: T1, Deoxyhypusyl hydroxylase (Homo sapiens, UniProt Q9BU89); assay: Cellular deoxyhypusyl hydroxylase (hypusine formation) inhibition, human B-cells and human smooth muscle cells; assay type: cell-based; details: concentration for half-maximal inhibition
T1 construct: endogenous in cells
T1 sequence (Q9BU89 1-302): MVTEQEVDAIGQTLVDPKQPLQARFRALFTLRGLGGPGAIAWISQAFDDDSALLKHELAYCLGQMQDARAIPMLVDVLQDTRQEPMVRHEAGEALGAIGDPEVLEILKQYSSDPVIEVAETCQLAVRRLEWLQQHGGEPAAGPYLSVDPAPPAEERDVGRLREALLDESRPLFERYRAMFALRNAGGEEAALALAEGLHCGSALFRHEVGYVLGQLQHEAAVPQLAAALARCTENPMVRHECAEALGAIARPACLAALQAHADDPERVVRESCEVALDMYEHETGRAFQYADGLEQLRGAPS
Experimental: (§1) The cell-free enzyme assay was performed to test a pilot peptidomimetic which can be equipped with hydroxypyridone warheads. The cell culture studies were performed to establish the inherent inhibitory potency of such hydroxypyridones.
DOHH Assay. The intracellular conversion of peptide-bound deoxyhypusine to peptidyl hypusine was determined after preincubation of human T lymphocyte-derived cells (i.e. ACH-2) [Clouse et al., J. Immunol. 142, 431-438 (1989), which is hereby incorporated by reference] with the hypusine inhibitors mimosine and HK-1 for 60 minutes, followed by labeling for 21 hours with ^3 H-spermidine (3.75 μCi/ml) in wells containing 3×10^6 cells suspended in 8 ml of serum-supplemented and antibiotic-containing RPMI 1640 medium. Cells were then split into two groups, one of them being harvested immediately to assess degree of DOHH inhibition, and the other harvested after transfer of the cells into inhibitor-free medium for 2 hours to measure resumption of DOHH activity. Harvesting consisted in precipitation of washed cells with 10% TCA containing 1 mM each of putrescine, spermidine, and spermine. Cellular proteins from each sample were then hydrolyzed in 6N HCl at 110° C. for 16 hours. The hydrolysate was analyzed for labeled amino acids on an amino acid analyzer by published methods [Park et al., J. Biol. Chem., 257, 7217-7222 (1982), which is hereby incorporated by reference]. The retention times of hypusine and deoxyhypusine were determined from standards. Similar studies were performed in human B-cells and human smooth muscle cells.
The concentration required for half-maximal inhibition (ID50) of the cellular enzyme activity is identified for each compound.

[1] = system: deoxyhypusyl hydroxylase (DOHH); assay: Cell-free DOHH assay with purified enzyme and unhydroxylated eIF-5A precursor; assay type: biochemical; details: purified rat enzyme, unhydroxylated eIF-5A, FIG. 4B
Experimental: The graph gives the chromatographic profile of metabolically labeled hypusine/deoxyhypusine obtained after incubation of the purified rat enzyme with unhydroxylated eIF-5A in the absence (open squares) and presence (closed squares) of mimetic III. […] Peptides of appropriate structure or peptidomimetics like mimetic III can serve as "carriers" for a reactive moiety termed "warhead" that, by virture of its attachment to the carrier, becomes precisely oriented to interact optimally with the active site metal ion of DOHH. In the case of mimetic III, such a warhead moiety can be attached at the site indicated by the asterisk in FIG. 4A.
as §1
DOHH Assay. Enzyme activity was purified and determined, as described by Abbruzzese et al., J Biol Chem 261:3085-9 (1986), which is hereby incorporated by reference. Briefly, the enzyme is offered as labeled deoxyhypusine-containing eIF-5A precursor, and, following standard incubation conditions, the conversion into hypusine residues is measured by chromatographic amino acid separation of the hydrolyzed proteins. […] Biophys. Acta, 1221, 115-124 (1994), which is hereby incorporated by reference]. […]

Structure (SMILES) | Deoxyhypusyl hydroxylase ID50 (cellular) (Deoxyhypusyl hydroxylase) | deoxyhypusine-to-hypusine conversion in presence of compound [1] | deoxyhypusine-to-hypusine conversion in presence of compound ([1]; listed as mimetic of Formula III)
CCc1c(O)c(=O)ccn1CC [HK-2] | 50 | – | –
COCCn1ccc(=O)c(O)c1C [HK-15] | 60 | – | –
C=CCn1ccc(=O)c(O)c1C [HK-16] | 50 | – | –
CCn1ccc(=O)c(O)c1C [HK-26] | 58 | – | –
CCCn1ccc(=O)c(O)c1C [HK-27] | 50 | – | –
NC(CO)C1CCC(=O)NC(CO)C(=O)N(C(Cc2ccccc2)C(=O)O)NC1=O (stereo not shown) [mimetic III] | – | clearly reduced | the deoxyhypusine-to-hypusine conversion was suppressed
